Assays:
Assay in all cases: relative viability (nuclei count vs DMSO), 5 days (fraction); higher = more cells survive
NCI-H1993 = system: NCI-H1993
How it was run: (§1)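 Lung cancer cell lines in 1536-well plates got either a single drug or a fixed anchor-drug dose together with five library-drug doses (not always all listed) in √10 steps, by pin tool, on the day after seeding. Nuclei were counted after 5 days, and relative viability is the treated-to-vehicle ratio of nuclei counts. Values are medians of duplicate plates.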

EBC-1 = system: EBC-1
How it was run: as §1

IA-LM = system: IA-LM
How it was run: as §1

A549 = system: A549
How it was run: as §1

NCI-H23 = system: NCI-H23
How it was run: as §1

NCI-H1703 = system: NCI-H1703
How it was run: as §1

NCI-H596 = system: NCI-H596
How it was run: as §1

LCLC-97TM1 = system: LCLC-97TM1
How it was run: as §1

NCI-H1299 = system: NCI-H1299
How it was run: as §1

UMC-11 = system: UMC-11
How it was run: as §1

NCI-H1355 = system: NCI-H1355
How it was run: as §1

NCI-H322M = system: NCI-H322M
How it was run: as §1

Calu-6 = system: Calu-6
How it was run: as §1

## CCN(CC)CCCCNc1ncc2cc(-c3cc(OC)cc(OC)c3)c(NC(=O)NC(C)(C)C)nc2n1 + Cc1nc(NC(=O)N2CCC[C@H]2C(N)=O)sc1-c1ccnc(C(C)(C)C(F)(F)F)c1 [Alpelisib] (partner 2 µM)
NCI-H1993; first compound 0.01 µM
  relative viability: 0.635
NCI-H1993; first compound 0.03162 µM
  relative viability: 0.707
NCI-H1993; first compound 0.1 µM
  relative viability: 0.691
NCI-H1993; first compound 0.3162 µM
  relative viability: 0.677
NCI-H1993; first compound 1 µM
  relative viability: 0.672
EBC-1; first compound 0.01 µM
  relative viability: 0.831
EBC-1; first compound 0.03162 µM
  relative viability: 0.887
EBC-1; first compound 0.1 µM
  relative viability: 0.965
EBC-1; first compound 0.3162 µM
  relative viability: 0.918
EBC-1; first compound 1 µM
  relative viability: 0.664
IA-LM; first compound 0.01 µM
  relative viability: 0.62
IA-LM; first compound 0.03162 µM
  relative viability: 0.659
IA-LM; first compound 0.1 µM
  relative viability: 0.672
IA-LM; first compound 0.3162 µM
  relative viability: 0.836
IA-LM; first compound 1 µM
  relative viability: 0.597
A549; first compound 0.01 µM
  relative viability: 0.726
A549; first compound 0.03162 µM
  relative viability: 0.801
A549; first compound 0.1 µM
  relative viability: 0.985
A549; first compound 0.3162 µM
  relative viability: 0.828
A549; first compound 1 µM
  relative viability: 0.57
NCI-H23; first compound 0.01 µM
  relative viability: 0.706
NCI-H23; first compound 0.03162 µM
  relative viability: 0.735
NCI-H23; first compound 0.1 µM
  relative viability: 0.851
NCI-H23; first compound 0.3162 µM
  relative viability: 0.653
NCI-H23; first compound 1 µM
  relative viability: 0.678
NCI-H1703; first compound 0.01 µM
  relative viability: 0.262
NCI-H1703; first compound 0.1 µM
  relative viability: 0.397
NCI-H1703; first compound 0.3162 µM
  relative viability: 0.45
NCI-H1703; first compound 1 µM
  relative viability: 0.292
NCI-H596; first compound 0.01 µM
  relative viability: 0.528
NCI-H596; first compound 0.03162 µM
  relative viability: 0.48
NCI-H596; first compound 0.1 µM
  relative viability: 0.478
NCI-H596; first compound 0.3162 µM
  relative viability: 0.549
NCI-H596; first compound 1 µM
  relative viability: 0.368
LCLC-97TM1; first compound 0.03162 µM
  relative viability: 0.265
LCLC-97TM1; first compound 0.1 µM
  relative viability: 0.221
LCLC-97TM1; first compound 0.3162 µM
  relative viability: 0.216
LCLC-97TM1; first compound 1 µM
  relative viability: 0.244
NCI-H1299; first compound 0.01 µM
  relative viability: 1.12
NCI-H1299; first compound 0.03162 µM
  relative viability: 1.12
NCI-H1299; first compound 0.1 µM
  relative viability: 1.08
NCI-H1299; first compound 0.3162 µM
  relative viability: 1.04
NCI-H1299; first compound 1 µM
  relative viability: 1.04
UMC-11; first compound 0.01 µM
  relative viability: 1.08
UMC-11; first compound 0.03162 µM
  relative viability: 0.921
UMC-11; first compound 0.1 µM
  relative viability: 1.02
UMC-11; first compound 0.3162 µM
  relative viability: 1.17
UMC-11; first compound 1 µM
  relative viability: 0.88
NCI-H1355; first compound 0.01 µM
  relative viability: 0.776
NCI-H1355; first compound 0.03162 µM
  relative viability: 0.847
NCI-H1355; first compound 0.1 µM
  relative viability: 0.894
NCI-H1355; first compound 0.3162 µM
  relative viability: 0.839
NCI-H1355; first compound 1 µM
  relative viability: 0.785
NCI-H322M; first compound 0.01 µM
  relative viability: 0.822
NCI-H322M; first compound 0.03162 µM
  relative viability: 0.782
NCI-H322M; first compound 0.1 µM
  relative viability: 0.77
NCI-H322M; first compound 0.3162 µM
  relative viability: 1.02
NCI-H322M; first compound 1 µM
  relative viability: 0.75
Calu-6; first compound 0.01 µM
  relative viability: 1
Calu-6; first compound 0.03162 µM
  relative viability: 0.996
Calu-6; first compound 0.1 µM
  relative viability: 0.868
Calu-6; first compound 0.3162 µM
  relative viability: 1.09
Calu-6; first compound 1 µM
  relative viability: 1.01

## O=c1cc(N2CCOCC2)oc2c(-c3cccc4c3sc3ccccc34)cccc12 + C[C@@H](Oc1cc(-c2cnn(C3CCNCC3)c2)cnc1N)c1c(Cl)ccc(F)c1Cl [Crizotinib] (partner 1 µM)
NCI-H1993; first compound 0.01 µM
  relative viability: 0.858
NCI-H1993; first compound 0.03162 µM
  relative viability: 0.93
NCI-H1993; first compound 0.1 µM
  relative viability: 0.928
NCI-H1993; first compound 0.3162 µM
  relative viability: 0.862
NCI-H1993; first compound 1 µM
  relative viability: 0.943
EBC-1; first compound 0.01 µM
  relative viability: 0.208
EBC-1; first compound 0.03162 µM
  relative viability: 0.227
EBC-1; first compound 0.1 µM
  relative viability: 0.207
EBC-1; first compound 0.3162 µM
  relative viability: 0.221
EBC-1; first compound 1 µM
  relative viability: 0.204
IA-LM; first compound 0.01 µM
  relative viability: 0.965
IA-LM; first compound 0.03162 µM
  relative viability: 0.694
IA-LM; first compound 0.1 µM
  relative viability: 0.683
IA-LM; first compound 0.3162 µM
  relative viability: 0.732
IA-LM; first compound 1 µM
  relative viability: 0.621
A549; first compound 0.01 µM
  relative viability: 0.771
A549; first compound 0.03162 µM
  relative viability: 0.769
A549; first compound 0.1 µM
  relative viability: 0.746
A549; first compound 0.3162 µM
  relative viability: 0.828
A549; first compound 1 µM
  relative viability: 0.659
NCI-H23; first compound 0.01 µM
  relative viability: 0.59
NCI-H23; first compound 0.03162 µM
  relative viability: 0.586
NCI-H23; first compound 0.3162 µM
  relative viability: 0.508
NCI-H23; first compound 1 µM
  relative viability: 0.506
NCI-H1703; first compound 0.01 µM
  relative viability: 0.769
NCI-H1703; first compound 0.03162 µM
  relative viability: 0.604
NCI-H1703; first compound 0.1 µM
  relative viability: 0.918
NCI-H1703; first compound 0.3162 µM
  relative viability: 0.584
NCI-H1703; first compound 1 µM
  relative viability: 0.591
NCI-H596; first compound 0.01 µM
  relative viability: 0.992
NCI-H596; first compound 0.03162 µM
  relative viability: 0.997
NCI-H596; first compound 0.1 µM
  relative viability: 0.907
NCI-H596; first compound 0.3162 µM
  relative viability: 0.948
NCI-H596; first compound 1 µM
  relative viability: 0.882
LCLC-97TM1; first compound 0.01 µM
  relative viability: 0.444
LCLC-97TM1; first compound 0.03162 µM
  relative viability: 0.339
LCLC-97TM1; first compound 0.3162 µM
  relative viability: 0.281
LCLC-97TM1; first compound 1 µM
  relative viability: 0.39
NCI-H1299; first compound 0.01 µM
  relative viability: 0.949
NCI-H1299; first compound 0.03162 µM
  relative viability: 0.954
NCI-H1299; first compound 0.1 µM
  relative viability: 0.973
NCI-H1299; first compound 0.3162 µM
  relative viability: 0.637
NCI-H1299; first compound 1 µM
  relative viability: 0.923
UMC-11; first compound 0.01 µM
  relative viability: 0.69
UMC-11; first compound 0.03162 µM
  relative viability: 0.648
UMC-11; first compound 0.1 µM
  relative viability: 0.592
UMC-11; first compound 0.3162 µM
  relative viability: 0.631
UMC-11; first compound 1 µM
  relative viability: 0.565
NCI-H1355; first compound 0.01 µM
  relative viability: 1.17
NCI-H1355; first compound 0.03162 µM
  relative viability: 1.12
NCI-H1355; first compound 0.3162 µM
  relative viability: 1.11
NCI-H1355; first compound 1 µM
  relative viability: 0.941
NCI-H322M; first compound 0.01 µM
  relative viability: 0.94
NCI-H322M; first compound 0.03162 µM
  relative viability: 0.842
NCI-H322M; first compound 0.3162 µM
  relative viability: 0.943
NCI-H322M; first compound 1 µM
  relative viability: 0.84
Calu-6; first compound 0.01 µM
  relative viability: 0.858
Calu-6; first compound 0.03162 µM
  relative viability: 0.857
Calu-6; first compound 0.1 µM
  relative viability: 0.793
Calu-6; first compound 0.3162 µM
  relative viability: 0.759
Calu-6; first compound 1 µM
  relative viability: 0.777
